Laboratory results from ChEMBL document CHEMBL1145230, “Syntheses of 2,4,6-trisubstituted pyrimidine derivatives as a new class of antifilarial topoisomerase II inhibitors” (Bioorg Med Chem Lett, 2005).
The source made the active and inactive calls. The calls are words filed in the database; no cut-off is given here.

How the values were obtained:
Assay type in all cases: functional
Setaria cervi [1] = assay: Percent inhibition of filarial parasite Setaria cervi by compound at 5 ug/mL concentration
Setaria cervi [2] = assay: Percent inhibition of filarial parasite Setaria cervi by compound at 20 ug/mL concentration
Setaria cervi [3] = assay: Percent inhibition of filarial parasite Setaria cervi by compound at 40 ug/mL concentration
Setaria cervi [4] = assay: Percent inhibition of filarial parasite Setaria cervi by compound at 10 ug/mL concentration
Setaria cervi [5] = assay: Percent inhibition of filarial parasite Setaria cervi by compound at 5 ug/mL concentration; NI = no inhibition
Setaria cervi [6] = assay: Percent inhibition of filarial parasite Setaria cervi by compound at 10 ug/mL concentration; NI = no inhibition

Structure (SMILES)	inhibition (Setaria cervi [1]) [%]	inhibition (Setaria cervi [2]) [%]	inhibition (Setaria cervi [3]) [%]	inhibition (Setaria cervi [4]) [%]	inhibition (Setaria cervi [5])	inhibition (Setaria cervi [6])
CN1CCN(c2cc(-c3cccs3)nc(-c3ccc(N)cc3)n2)CC1	25	80	80	80		
Nc1nc(NCCN2CCOCC2)cc(-c2cccs2)n1		80	80	80	inactive	
Nc1ccc(-c2nc(NCCCN3CCOCC3)cc(-c3cccs3)n2)cc1	40	70	70	70		
Nc1nc(NCCO)cc(-c2cccs2)n1		60	60		inactive	inactive
CCn1cc(C(=O)O)c(=O)c2ccc(C)nc21		40	80	20	inactive	
CO[C@@H]1[C@@H](OC(N)=O)[C@@H](O)[C@H](Oc2ccc3c(O)c(NC(=O)c4ccc(O)c(CC=C(C)C)c4)c(=O)oc3c2C)OC1(C)C		20	80	10	inactive	
CCN(CC)C(=O)N1CCN(C)CC1		10	45		inactive	inactive
CN1CCN(c2cc(-c3cccs3)nc(N)n2)CC1	60	80	80	80		
Nc1nc(NCCCN2CCOCC2)cc(-c2cccs2)n1	60	80	80	80		
CCCNc1cc(-c2cccs2)nc(N)n1		60	60		inactive	inactive
